Test results as given in publication PMC3718762, “Differential Disruption of EWS-FLI1 Binding by DNA-Binding Agents” (PLoS ONE, 2013).
Starred links: 1 amine or outer side, 2 acyl side, 3 side chain; linkers in the order of their positions; H or OH if unused. Positions of bridges follow the written chain, without caps; N, C: chain ends. Non-standard residues stand in square brackets, D forms with d. Residues, ends and D or L forms follow the SMILES beside them. Chains are numbered I, II in the order given. Actinocin(9to1) = Cc1c2oc3c(C)ccc(C(=O)[*:1])c3nc-2c(C(=O)[*:2])c(N)c1=O; NMeV = CN[C@H](C(=O)O)C(C)C; Sar = CNCC(=O)O

Key:
EWS-FLI1-induced genes = test: Gene expression profiling with GSEA in A673 cells; format: cell-based; conditions: 5 nM, 24 hours
Description: Ewing sarcoma A673 cells at 65% confluence were treated in duplicate with DMSO (0.2%) or 5 nM actinomycin D for 24 hours. RNA was extracted with an Absolutely RNA kit. 100 ng of total RNA was hybridized to Affymetrix Gene 1.0 ST Arrays (DFCI Microarray Core Facility). Array quality was verified before background correction, RMA normalization and log2 conversion using the Bioconductor R package affy (URL: http://www.bioconductor.org). Differential gene expression was determined using the limma Bioconductor package. Genes with a fold-change >2 and Benjamini-Hochberg-corrected p-value <0.01 were retained for further consideration. Gene expression data have been deposited in GEO (GSE45414) and can be accessed at URL: http://www.ncbi.nlm.nih.gov/geo/query/acc.cgi?acc=GSE45414.
Consistent with the enrichment of E2F targets among EWS-FLI1-induced genes we noted in the shRNA study above (Figure 3A), we also found down-regulation of this class of signatures in A673 cells treated with low-dose actinomycin D (Figure 3B, black circles).

EWS-FLI1 = test: AlphaScreen proximity assay, binding of recombinant EWS-FLI1 to cognate DNA oligo
NR0B1 mRNA = test: Quantitative RT-PCR of endogenous NR0B1 mRNA in A673 cells; format: cell-based
Description: Duplicate wells of A673 cells were treated overnight with different concentration of actinomycin D. RNA was extracted with absolutely mRNA purification kit from Stratagene. 0.5 µg total RNA was mixed with 1 µl iScript Reverse Transcriptase, 10 µl of 2× RT-PCR reaction mix for probes from Bio-Rad, 1 µl of NR0B1, RPS26 and TP53 probes from Life Technologies and H2O up to 20 µl total volume. RT-PCR was performed in an iCycler iQ with 50°C for 10 minutes for one cycle; 95°C, 15 seconds, 60°C 40 seconds for 40 cycles. Each RNA sample was technically duplicated, and relative abundance was calculated by the delta Ct method.

UbC promoter = test: UbC-Renilla luciferase reporter (internal control) in A673 cells; format: cell-based; conditions: Homo sapiens, 16 hours, read-out: IC50 for inhibition of UbC promoter activity
Description: Ewing sarcoma A673 cells at 50% confluence in 100 mm dishes were transfected with both 5.8 µg of pGL.3b-NR0B1 and 0.2 µg of pGL.3b-Ubc-RL reporter plasmids as above. Eight hours post-transfection, cells were trypsinized and 600 ul (2×10^5) of cells were added to each well of 24 well plates. 5 µl of different concentration of compounds or DMSO control were added to each well. Each treatment was performed in triplicate. Cells were incubated for 16 hours, then cells were lysed in 100 µl of lysis buffer and 10 µl of cell lysate was used for the dual luciferase assay. Renilla luciferase activity was used as an internal control for normalization of nonspecific transcriptional inhibition or cytotoxic effects. Experiments were repeated three times. IC50 values were calculated using Prism (Graphpad).
To determine the effect of compounds on EWS-FLI1 activity in cells, we used a reporter assay comprised of the NR0B1 promoter, a prototypical EWS-FLI1-regulated gene, driving expression of firefly luciferase. Renilla luciferase driven by the Ubiquitin C promoter (UbC-RL) was used as an internal control. Confirming prior studies, the NR0B1 promoter was verified to be highly responsive to EWS-FLI1, whereas the UbC promoter activity was not subject to regulation by EWS-FLI1 (Figure S1).

p53 = target: T1, p53 (Homo sapiens, UniProt P04637); test: AlphaScreen proximity assay (counterscreen), binding of recombinant p53 to cognate DNA oligo
T1 construct: made in house; host or cells: bacteria (pGex-6P-1-p53); plasmid was a gift from Dr. Guangchao Sui
Text: An AlphaScreen assay for binding of recombinant EWS-FLI1 to DNA was previously described. Briefly, recombinant EWS-FLI1 and p53 were synthesized in bacteria transformed with pGex-6P-1-EWS-FLI1 or pGex-6P-1-p53, and bound to AlphaScreen acceptor beads. A biotinylated oligonucleotide containing two copies of the EWS-FLI1 binding motif or p53 binding motifs was bound to AlphaScreen donor beads. For EWS-FLI1, the oligo sequence was: […]. The p53 binding oligo sequence was: […]. This assay was used to screen 5,200 compounds, as previously described. IC50 values were calculated with the GraphPad Prism software package.
We developed a homogeneous AlphaScreen assay to assess the binding of recombinant EWS-FLI1 to DNA [18]. A parallel assay assessing binding of p53 to DNA was used as a counterscreen. Briefly, in these proximity assays, recombinant GST-EWS-FLI1 or GST-p53 was bound to glutathione-conjugated AlphaScreen acceptor beads, and a synthetic biotinylated oligonucleotide (oligo) containing tandem EWS-FLI1 or p53 binding sites was bound to streptavidin-conjugated AlphaScreen donor beads. Binding of GST-EWS-FLI1 or GST-p53 to the cognate oligo allows singlet oxygen transfer from donor to acceptor beads when excited at 680 nm, with resulting light emission between 520–620 nm.

RPS26 and TP53 loci = test: ChIP-qPCR, control loci in A673 cells; format: cell-based; conditions: 5 nM, 4 hrs, anti-FLI1 ChIP
Description: ChIP-qPCR was performed as previously described. Briefly, cells were treated with compounds for 4 hrs, then crosslinked, lysed, and chromatin fragmented. After ChIP, quantitative PCR was used to quantify NR0B1, p53, and RPS26 loci, and fold enrichment was determined by the formula: Fold enrichment = 2χ(Input Ct-ChIP Ct)/2χ(Input Ct-IgG Ct).
We used chromatin immunoprecipitation coupled with quantitative PCR (ChIP-qPCR) to assess effects of actinomycin D on EWS-FLI1 binding to chromatin in cells. A673 cells were treated with either actinomycin D at 5 nM, or vehicle. After crosslinking, chromatin was sheared and EWS-FLI1-DNA complexes were immunoprecipitated using an anti-FLI1 antibody. We used primers flanking the EWS-FLI1-binding site in the promoter of the NR0B1 gene to quantify binding of EWS-FLI1. We used RPS26 and TP53 as control loci since neither are bound by EWS-FLI [15] and we have shown that RPS26 and TP53 transcript levels were unaffected by actinomycin D treatment (Figure 2F). Without actinomycin D treatment, binding of EWS-FLI1 to the NR0B1 promoter was enriched 31-fold by comparison to IgG controls (Figure 4A, DMSO). Treatment of cells with actinomycin D reduced binding of EWS-FLI1 to the NR0B1 promoter to 4-fold (p = 0.0018; Figure 4A).

T1 sequence (P04637 whole entry, species assumed): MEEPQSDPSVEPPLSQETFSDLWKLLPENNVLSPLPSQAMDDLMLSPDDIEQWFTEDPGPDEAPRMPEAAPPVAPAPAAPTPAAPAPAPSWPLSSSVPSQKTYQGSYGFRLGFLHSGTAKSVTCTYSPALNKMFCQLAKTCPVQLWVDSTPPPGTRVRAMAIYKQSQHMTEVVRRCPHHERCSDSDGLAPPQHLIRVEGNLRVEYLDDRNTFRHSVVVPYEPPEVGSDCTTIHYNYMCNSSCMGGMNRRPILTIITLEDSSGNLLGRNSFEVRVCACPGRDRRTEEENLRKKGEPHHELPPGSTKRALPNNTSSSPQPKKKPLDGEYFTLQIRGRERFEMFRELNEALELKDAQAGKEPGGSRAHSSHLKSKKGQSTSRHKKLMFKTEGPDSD

With `Cc1c2oc3c(C)ccc(C(=O)N[C@@H]4C(=O)N[C@H](C(C)C)C(=O)N5CCC[C@H]5C(=O)N(C)CC(=O)N(C)[C@@H](C(C)C)C(=O)O[C@@H]4C)c3nc-2c(C(=O)N[C@@H]2C(=O)N[C@H](C(C)C)C(=O)N3CCC[C@H]3C(=O)N(C)CC(=O)N(C)[C@@H](C(C)C)C(=O)O[C@@H]2C)c(N)c1=O` [Actinomycin D] (I: T[dV]P[Sar][NMeV] / II: T[dV]P[Sar][NMeV]; ester I:1-I:C, II:1-II:C; linker I:N-II:N via Actinocin(9to1)) the “Expression of EWS-FLI1-induced genes (GSEA)” value (EWS-FLI1-induced genes) was “repressed to a significant degree”, the “Disruption of EWS-FLI1 binding compared with p53 binding in the parallel assays” value (EWS-FLI1; EWS-FLI1 versus p53) was “greatest differential effect” and the IC50 (EWS-FLI1; read-out: IC50 EWS-FLI1, disruption of recombinant EWS-FLI1 binding to DNA) was 45 nM. For the same molecule, the “Expression of NR0B1 and control transcripts” value (NR0B1 mRNA; A673 cells, overnight, 50 nM) was “similarly attenuated”, the “Expression of endogenous NR0B1 mRNA” value (NR0B1 mRNA; A673 cells, overnight, 5 -10 nM, versus control transcripts p53 and RPS26) was “preferentially attenuated” and the “Window between preferential effect on EWS-FLI1 and global inhibition of transcription” value (NR0B1 mRNA; in cells) was under 10 fold. For the same molecule, the IC50 (UbC promoter) was 14 nM, the IC50 (p53) was over 10000 nM and the “Effect on RPS26 or TP53 loci in ChIP” value (RPS26 and TP53 loci) was “did not affect”.
